Laboratory results reported in US5958966A, “Treatment of aberrant cellular states with biomodulators” (University of New Mexico, priority 1995, dated 1999).
“Also recorded” adds a separate entry of the source.

What was measured:
[1] = system: anti-CG IgG antibodies; assay: tumor-specific (anti-CG) antibody production in a dog; assay type: in vivo
[2] = system: human peripheral blood leukocytes (HPBL); assay: stimulation / inhibition of IgG production in HPBL; assay type: cell-based; conditions: HPBL
Protocol: Human peripheral blood leukocytes were cultured in a standard tissue culture medium. Aliquots of these cultured cells (1,000,000 cells/ml medium) were cultured for 6 hours, and the specified amount of Formula II compound was added; the cells were then cultured for an additional 90 hours. Sheep red blood cells (SRBC) conditioned with class-specific (IpG) goat anti-human antiserum (1:400) for 2 hours; then guinea pig complement (2%) for 2 hours were conjugated to Protein A as described in detail in Radioimmunoimaging and Radioimmunotherapy, Eds. S. W. Burchiel and B. A. Rhodes, Elsevier Science Publishing; New York, 1983, pp. 125-127, incorporated herein by reference.

[3] = system: canine glioma cells; assay: canine glioma tumor inhibition in nude rats (Formula II compound); assay type: in vivo, nude rat
Protocol: Fifty four nude rats (Harlan) were injected in the right flank with 5×10^6 canine glioma cells. Animals at the time of injection were between 52 and 63 days old and weighed approximately 200 g. The rats were divided into 7 groups, each group having a total number of 7 rats except for the control group, which totalled 12 animals. Compound IIc' was administered to the experimental animals at one of the following doses for each experimental group: 100 μg/kg, 10 μg/kg, 1 μg/kg, 0.1 μg/kg, 0.01 μg/kg and 0.001 μg/kg (phosphate buffer saline, M, W, F, I.P.). The control animals were injected with PBS (phosphate buffered saline) only. The volume of each injection was 100 μl. The injections of drug were simultaneously begun with injection of tumor cells. The animals were injected with the appropriate dosage of drug (1 ng/kg to […]) by I. P. injection and tumor length, width and depth were measured using caliphers each Monday, Wednesday and Friday (M, W, F) morning for approximately 9 weeks. Each point on the graphs represents the total of all rats for each group. […] The data were normalized for the greater number of control animals by multiplying the total tumor volume for the control animals by 7/12.

[4] = system: canine glioma (CG) cells; assay: chromium-release cell-mediated lympholysis (CML) vs. CG tumor in a dog; assay type: in vivo; conditions: for CG-specific CML in words: dog
Description: Cellular immune response reflected the results reported in III, 1 above. […] This also is in the absence of CG antigen exposure. […] Thus, both cellular and humoral immunity appear to be modulatable in the absence of antigen by the compounds of the instant invention.

## CC(C)OC(=O)C[C@H](O)C[C@@H](O)/C=C/c1c(C(C)C)nc(-c2ccccc2)n1-c1ccc(F)cc1 [Compound IIc']
[1]
  CG-specific antibody titer in words: titers of antibody increased over the control antibody titer significantly; also recorded: CG-specific antibody (IgG) production increased significantly; also recorded: rapidly (within a few days) reverted to baseline control levels
[2]
  IgG production in words: stimulated IgG production
  Inhibitory Concentration (nonspecific IgG production below normal): none found
[2]; immune stimulation
  optimal dose in vitro: 100 pM
[3]; 10 and 100 μg/kg or 1 ng/kg
  cytostatic activity at other doses: Little or no cytostatic activity
[3]; nude rats, I.P., M, W, F
  most effective dosage for inhibition: 100 ng/kg
[4]; December 14, 1987
  slope M of linear regression of toxicity: 0.05
[4]; February 9, 1988
  slope M of linear regression of toxicity: 0.35
[4]; February 17, 1988
  slope M of linear regression of toxicity: 0.75
[4]; March 31, 1988
  slope M of linear regression of toxicity: 0.05
[4]
  CG-specific CML in words: significant increase in CML; also recorded: large increase in the CML reactivity; also recorded: CML reactivity again returned to baseline
[4]; listed as IIIc'
  CG-specific CML in words: only baseline levels of CG-specific CML were present
